Source: the supplement of paper PMC10307832

compound: CCOC1=CC=CC=C1N=NC2=C(NN(C2=O)C3=NC(=CS3)C4=CC=CC=C4)C [BAM7] + CC(=O)Nc1cccc(-n2c(=O)n(C3CC3)c(=O)c3c(Nc4ccc(I)cc4F)n(C)c(=O)c(C)c32)c1 [Trametinib] (partner 0.02 µM); test: relative viability (nuclei count vs DMSO), 5 days (fraction); higher = more cells survive; settings: first compound 0.5 µM
Outline: (§1)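 Lung cancer cell lines, seeded in 1536-well plates, were treated the following day by pin tool with a single drug or with five library-drug doses (not always all listed) in √10 steps on top of a fixed anchor-drug dose. Cells were fixed and nuclei stained in one step after 5 days, and nuclei were counted. Relative viability is the nuclei count for treated wells divided by that for vehicle wells, reported as medians of duplicate plates.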

Cell Line	relative viability
HCC-78	0.579
NCI-H322M	0.525
LCLC-97TM1	0.202
NCI-H2009	0.265
A-427	0.765
NCI-H441	0.522
NCI-H661	0.561
NCI-H1734	0.766
NCI-H460	0.0937
NCI-H2347	0.326
SK-LU-1	0.575
201T	0.742
NCI-H1915	0.333
HCC-827	0.535
LXF-289	0.739
NCI-H23	0.314
NCI-H647	0.457

same assay, conditions: first compound 5 µM

Cell Line	relative viability
HCC-78	0.805
NCI-H322M	0.577
LCLC-97TM1	0.199
NCI-H2009	0.229
A-427	0.809
NCI-H441	0.518
NCI-H661	0.638
NCI-H1734	0.798
NCI-H460	0.124
NCI-H2347	0.32
SK-LU-1	0.525
201T	0.738
NCI-H1915	0.317
HCC-827	0.548
LXF-289	0.762
NCI-H23	0.423
NCI-H647	0.599

same assay, conditions: first compound 15.81 µM

Cell Line	relative viability
HCC-78	0.689
NCI-H322M	0.496
NCI-H2009	0.268
A-427	0.752
NCI-H441	0.498
NCI-H661	0.606
NCI-H1734	0.667
NCI-H460	0.145
NCI-H2347	0.277
SK-LU-1	0.527
201T	0.71
NCI-H1915	0.272
HCC-827	0.591
LXF-289	0.734
NCI-H23	0.389
NCI-H647	0.494

same assay, conditions: first compound 50 µM

Cell Line	relative viability
HCC-78	0.819
NCI-H322M	0.571
LCLC-97TM1	0.224
NCI-H2009	0.283
A-427	0.911
NCI-H441	0.496
NCI-H661	0.619
NCI-H1734	0.626
NCI-H460	0.13
NCI-H2347	0.287
SK-LU-1	0.499
201T	0.708
NCI-H1915	0.323
HCC-827	0.556
LXF-289	0.641
NCI-H23	0.462
NCI-H647	0.445

compound: CCOC1=CC=CC=C1N=NC2=C(NN(C2=O)C3=NC(=CS3)C4=CC=CC=C4)C [BAM7] + CC(C)C[C@H](NC(=O)[C@H](Cc1ccccc1)NC(=O)c1cnccn1)B(O)O [Bortezomib] (partner 0.002 µM); test: as above; settings: first compound 0.5 µM
Outline: as §1

Cell Line	relative viability
HCC-78	0.586
NCI-H322M	1.2
LCLC-97TM1	0.721
NCI-H2009	0.976
A-427	0.965
NCI-H441	0.48
NCI-H661	0.807
NCI-H1734	1.13
NCI-H460	1.38
NCI-H2347	1
SK-LU-1	1.18
201T	1.05
NCI-H1915	0.988
HCC-827	1.1
LXF-289	1.07
NCI-H23	1.23
NCI-H647	1.11

same assay, conditions: first compound 5 µM

Cell Line	relative viability
HCC-78	0.63
NCI-H322M	1.2
LCLC-97TM1	0.608
NCI-H2009	1.29
A-427	0.978
NCI-H441	0.453
NCI-H661	0.738
NCI-H1734	1.12
NCI-H460	1.1
NCI-H2347	1.27
SK-LU-1	1.46
201T	1.13
NCI-H1915	1.01
HCC-827	1.17
LXF-289	1.1
NCI-H23	1.05
NCI-H647	0.936

same assay, conditions: first compound 15.81 µM

Cell Line	relative viability
HCC-78	0.419
NCI-H322M	1.05
LCLC-97TM1	0.898
NCI-H2009	0.926
A-427	0.893
NCI-H441	0.464
NCI-H661	0.656
NCI-H1734	0.888
NCI-H460	1.04
NCI-H2347	1.32
SK-LU-1	1.3
201T	0.925
NCI-H1915	1.09
HCC-827	1.05
LXF-289	1.02
NCI-H23	0.933
NCI-H647	1.03

same assay, conditions: first compound 50 µM

Cell Line	relative viability
HCC-78	0.608
NCI-H322M	1.02
LCLC-97TM1	0.76
NCI-H2009	0.971
A-427	1.04
NCI-H441	0.447
NCI-H661	0.827
NCI-H1734	0.978
NCI-H460	1.01
NCI-H2347	1.2
SK-LU-1	1.39
201T	0.987
NCI-H1915	1.03
HCC-827	0.917
LXF-289	1.01
NCI-H23	1.12
NCI-H647	1.1

compound: CCOC1=CC=CC=C1N=NC2=C(NN(C2=O)C3=NC(=CS3)C4=CC=CC=C4)C [BAM7] + Nc1ncn([C@H]2C[C@H](O)[C@@H](CO)O2)c(=O)n1 [Decitabine] (partner 2 µM); test: as above; settings: first compound 0.5 µM
Outline: as §1

Cell Line	relative viability
HCC-78	0.965
NCI-H322M	0.761
LCLC-97TM1	0.252
NCI-H2009	0.369
A-427	0.531
NCI-H441	0.291
NCI-H661	0.597
NCI-H1734	0.515
